Test results taken from patent US11473094B2, “Methods for improving competency of plant cells” (Monsanto Technology LLC, priority 2010, dated 2022).

System: Soybean cv. A3555 dry embryos
Assay: Transformation frequency, PEG compared to other osmotic compounds
Assay type: cell-based
Settings: 1 hour contact, AB30/OriRi
Source text: It also compares TF enhancement of treatments with various PEG species. Soybean cv. […] dry embryos were excised according to the method described in U.S. Patent Application Publication No. 2008/0280361 and contacted for an hour with various amounts of PEG-4000, PEG-6000, PEG-8000, Mannitol, Sorbitol, or Glycerol dissolved in SDW. The embryos were then rinsed 5-6× with SDW and transformed according to the methods described in U.S. Patent Application Publication No. 2009/0138985. The embryos were transformed with a 2T transformation vector having an OriRi replication of origin and contained in AB30 strain of Agrobacterium. The embryos were regenerated on spectinomycin selection medium.

Row | SMILES | # R0 Plants (10% in SDW) | TF (10% in SDW) [%] | # R0 Plants (20% in SDW) | TF (20% in SDW) [%]
1 | OCC(O)CO [glycerol, Glycerol] | 4 | 2.30 | 0 | 0.00
2 | OC[C@@H](O)[C@@H](O)[C@H](O)[C@@H](O)CO [sorbitol, Sorbitol] | 4 | 0.40 | 3 | 0.30
3 | OC[C@@H](O)[C@@H](O)[C@H](O)[C@H](O)CO [mannitol, Mannitol] | 5 | 0.50 |  | 
